In patent publication US7691417B2, “Tumor and mutation suppressing plant extract” (Clemson University Research Foundation, priority 2004, dated 2010):

Assays:
[1] = test system: Salmonella typhimurium (Strain TA 100); assay: Ames Salmonella/microsome mutagenic test with human S9 mix and mutagen 2-AA; type: cell-based
Description: Mutagenicity is evaluated following the Ames Salmonella mutagenic assay, a bacterial reverse mutation test using a histidine-dependent […] mutant of Salmonella typhimurium lacking both normal DNA repair mechanisms and the ability to grow on a histidine-free medium. See, D. R. Maron and B. Ames. Mutation Research. 1980. 113:173-215, incorporated herein by reference in its entirety. As one skilled in the art understands, the test assumes that DNA-altering chemicals cause mutations and that mutagenicity is closely associated with carcinogenicity. Induced mutations are estimated by the number of bacteria capable of growing on a histidine-free medium. […]
Colonies chosen to generate overnight cultures were grown in 5 ml nutrient broth #2 (Cat No. CM 0067; Oxid Products; Basingstone, Hampshire, UK) at […] to a density of 1-2×10^9 per ml (absorbance of 0.96±0.2 at 600 nm). […]
Test compounds with the S9 mix were incubated for 30 minutes at 37° C., filter sterilized (0.2 μm Acrodisc® V45W500; Pall Galman, Ann Arbor, Mich.), and divided into two 1.5 ml duplicate aliquots. […] Each aliquot was vortexed briefly and immediately poured on Petri dishes containing the minimal glucose agar (MGA) which were allowed to solidify, then inverted and incubated at 37° C. in the dark for 48 hours, after which revertant colonies on control and test plates were counted.

[2] = test system: tumors induced by A. tumefaciens on potato discs; assay: Potato disc tumor induction assay (Agrobacterium tumefaciens-induced tumors); type: cell-based, Solanium tuberosum L.
Description: Tumor suppression is evaluated following the well-known Agrobacterium tumor induction assay procedure. The assay depends on the unique property of Agrobacterium tumefaciens of inserting a portion of its tumor-inducing (Ti) plasmid into the chromosomal DNA of a wounded plant, causing tumor-like growths on the plant, a condition commonly known to those skilled in the art as Crown Gall disease. Antitumor potential is measured by tumor suppression on aseptic potato discs treated with the plant extract. See A. B. Galsky, et al. J. Nat. Cancer Inst. 1981. 67:689-692, incorporated herein by reference, in its entirety. Antitumor activity detected by the Agrobacterium assay is correlated with suppression of tumors in animals; thus, plant extracts that suppress Agrobacterium-induced tumor formation have significant potential as human anticarcinogens.
Antitumor effects of extracts were tested using the Potato Tumor Induction method of McLaughlin's laboratories. 1 A. tumefaciens was cultured in Difco Yeast Extract Medium for a period of 48-72 hours at […] for use in the assay. […]

Row | Structure (SMILES) | revertant colonies formed in the presence of 2-AA ([1]; 2-AA alone (DMSO + S9), no extract) | colonies formed with 2-AA relative to the control ([1]; 991.6 versus control 48.2) | % INHIBITION (tumor) ([2]; parallel study, dilution 1:10,000, Table 2) | tumor inhibition ([2]; positive inhibitory control of the Table 1 study, camptothecin stock 100 μg/ml)
1 | Nc1ccc2cc3ccccc3cc2c1 [2-AA, 2-aminianthuracene] | 991.6 | approximately 20 fold | – | –
2 | CC[C@@]1(O)C(=O)OCc2c1cc1n(c2=O)Cc2cc3ccccc3nc2-1 [camptothecin, Camptothecin] | – | – | 100% | 98.2%
